Source: patent publication US20240199547A1, “OPTICAL ABSORBENT COMPOSITION” (LMS CO., LTD., priority 2022, published 2024)

Assay: Solubility of each synthesized chemical compound in solvents at room temperature
Type: physicochemical
Details: room temperature (about 25° C.); for Solubility in MEK: methyl ethyl ketone (MEK); for Solubility in MIBK: methyl isobutyl ketone (MIBK)
Protocol: The solubility of each synthesized chemical compound was evaluated. Solubility was determined according to the following criteria by evaluating the solubility of each chemical compound in a plurality of solvents (cyclohexanone, toluene, methyl isobutyl ketone (MIBK) or methyl ethyl ketone (MEK)) at room temperature (about 25° C.).
A: When the solubility is 1% by mass or more.
B: When the solubility is 0.5% by mass or more and less than 1% by mass.
C: When the solubility is 0.2% by mass or more and less than 0.5% by mass.
D: When the solubility is less than 0.2% by mass.
The solubility evaluation results were summarized and described in Table 1.

| Structure (SMILES) | Solubility in Cyclohexanone | Solubility in MEK | Solubility in MIBK | Solubility in Toluene |
| --- | --- | --- | --- | --- |
| CCCCC(CC)C(=O)Nc1cc2c(cc1C1=C([O-])/C(=c3\cc4c(cc3NC(=O)C(CC)CCCC)=[N+](CCCC)C(C)C4(C)C)C1=O)C(C)(C)C(C)N2CCCC (centres unmarked) [Synthesis Example 2] | A (When the solubility is 1% by mass or more.) | A (When the solubility is 1% by mass or more.) | A (When the solubility is 1% by mass or more.) | A (When the solubility is 1% by mass or more.) |
| CCCCCCCCN1c2cc(NC(=O)C(F)(F)F)c(C3=C([O-])/C(=c4\cc5c(cc4NC(=O)C(F)(F)F)=[N+](CCCCCCCC)C(CC)C5(C)C)C3=O)cc2C(C)(C)C1CC (centres unmarked) [Synthesis Example 3] | A (When the solubility is 1% by mass or more.) | A (When the solubility is 1% by mass or more.) | A (When the solubility is 1% by mass or more.) | A (When the solubility is 1% by mass or more.) |
| CCCC(=O)Nc1cc2c(cc1C1=C([O-])/C(=c3\cc4c(cc3NC(=O)CCC)=[N+](CCOC)C(C)C4(C)C)C1=O)C(C)(C)C(C)N2CCOC (centres unmarked) [Synthesis Example 4] | A (When the solubility is 1% by mass or more.) | A (When the solubility is 1% by mass or more.) | A (When the solubility is 1% by mass or more.) | A (When the solubility is 1% by mass or more.) |
| CCCCCCN1c2cc(NC(=O)OCC)c(C3=C([O-])/C(=c4\cc5c(cc4NC(=O)OCC)=[N+](CCCCCC)C(C)C5(C)C)C3=O)cc2C(C)(C)C1C (centres unmarked) [Synthesis Example 5] | A (When the solubility is 1% by mass or more.) | A (When the solubility is 1% by mass or more.) | A (When the solubility is 1% by mass or more.) | A (When the solubility is 1% by mass or more.) |
| CC(=O)Nc1cc2c(cc1C1=C([O-])/C(=c3\cc4c(cc3NC(C)=O)=[N+](C)C(C)C4(C)C)C1=O)C(C)(C)C(C)N2C (centres unmarked) [Synthesis Example 6] | B (When the solubility is 0.5% by mass or more and less than 1% by mass.) | B (When the solubility is 0.5% by mass or more and less than 1% by mass.) | B (When the solubility is 0.5% by mass or more and less than 1% by mass.) | B (When the solubility is 0.5% by mass or more and less than 1% by mass.) |
